# Measured values published in paper PMC10318527, “Utilization of dietary mixed-linkage β-glucans by the Firmicute Blautia producta” (The Journal of Biological Chemistry, 2023).
# Tests used:
# BpGH16MLG (BPGH16) = experiment: Michaelis-Menten kinetics of BpGH16MLG on β-glucans (DNS assay); assay type: biochemical, Blautia producta ATCC 27340
# Procedure: (§1) Then, reactions were terminated by boiling for 5 min. Enzymatic assays were determined with 3,5- dinitrosalicylic acid (DNS) assay ([85]). In brief, 0.05 g Na2SO3 and 1 g DNS were mixed in a 50 ml water-containing reagent bottle and stirred about 6 h using a magnetic stirrer. After that, 200 μl phenol was added and made up to 100 ml. A working solution of DNS was prepared by adding 50 μl glucose (20% (w/v) stock) in prepared 100 ml of reagent mixtures and immediately used for experiments without adding NaOH. 80 μl DNS reagent was added to the reaction mixtures and incubated at 100 °C for 10 min, followed by ice-cooling for 10 min. Consequently, recorded the developed color spectrophotometrically at 575 nm ([85]). A standard curve generated by different concentrations of maltose was used for determining released reducing sugars in each case.
# BPGH16 mutant D381A = experiment: Kinetics of BPGH16 mutant D381A (DNS assay); assay type: biochemical, Blautia producta ATCC 27340
# Procedure: The residues R331, L358, E379, D381, E384, W362, and H398 of BpGH16MLG were mutated to Ala by the Q5Site-Directed Mutagenesis Kit (New England Biolabs, UK, catalogue no. E0554S). Wild-type plasmid BpGH16-pET28a(+) was used as a template, and mutagenic forward and reverse primers were developed using NEBaseChanger with subtle modifications (Table S4). A 25 μl PCR cocktail was prepared for mutating each residue. The final concentration of Q5 Hot Start High-Fidelity 2X Master Mix was 1X, each primer was at 0.5 μM, the amount of used template was 20 ng, and the rest of the volume was made up of nuclease-free water. PCR was executed using the following conditions-initial denaturation was performed at 98 °C for 1 min, for each cycle-denaturation, annealing, and extension (72 °C) were set for 10 s, 20 s, and 7 min, respectively. A total of 25 cycles were performed, and the final extension was for 5 min 5 μl PCR products were loaded on 0.8% agarose gel to conform to the amplification of the mutagenic gene. Ligation of PCR products and cleavage of methylated template DNA was then performed using 5 μl KLD reaction buffer and 1 μl KLD enzyme cocktail at RT for 1 h. It was then transformed into E. coli TOP-10 cells and plasmids were isolated. The obtained plasmids were sequenced to confirm the mutation at the desired location. Once mutation was confirmed in a gene, the mutant plasmid was transformed into Rosetta (DE3) cells for protein expression. The mutant protein was then expressed as per the protocol mentioned earlier, and kinetics were performed with barley β-glucan.
# as §1, with “Reactions were performed in 100 μl volume mixture using recombinant enzyme (final concentration at 0.1 mg/ml) in 50 mM sodium phosphate buffer (pH 5.7) at 37 °C for 1 h of incubation. Then,” for “Then,”
# BPGH16 mutant W362A = experiment: Kinetics of BPGH16 mutant W362A (DNS assay); assay type: biochemical, Blautia producta ATCC 27340
# Procedure: The residues R331, L358, E379, D381, E384, W362, and H398 of BpGH16MLG were mutated to Ala by the Q5Site-Directed Mutagenesis Kit (New England Biolabs, UK, catalogue no. E0554S). Wild-type plasmid BpGH16-pET28a(+) was used as a template, and mutagenic forward and reverse primers were developed using NEBaseChanger with subtle modifications (Table S4). A 25 μl PCR cocktail was prepared for mutating each residue. The final concentration of Q5 Hot Start High-Fidelity 2X Master Mix was 1X, each primer was at 0.5 μM, the amount of used template was 20 ng, and the rest of the volume was made up of nuclease-free water. PCR was executed using the following conditions-initial denaturation was performed at 98 °C for 1 min, for each cycle-denaturation, annealing, and extension (72 °C) were set for 10 s, 20 s, and 7 min, respectively. […] The mutant protein was then expressed as per the protocol mentioned earlier, and kinetics were performed with barley β-glucan.
# Reactions were performed in 100 μl volume mixture using recombinant enzyme (final concentration at 0.1 mg/ml) in 50 mM sodium phosphate buffer (pH 5.7) at 37 °C for 1 h of incubation. […] Enzymatic assays were determined with 3,5- dinitrosalicylic acid (DNS) assay ([85]). […] Consequently, recorded the developed color spectrophotometrically at 575 nm ([85]). […]
# proteome of B. producta = experiment: Proteomics of B. producta grown on barley β-glucan versus glucose; assay type: cell-based, Blautia producta ATCC 27340; settings: barley β-glucan compared to glucose
# Procedure: B. producta ATCC 27340 was anaerobically grown at 37 °C overnight, cells were collected by centrifugation (3000g at room temperature, RT) and washed thrice with 5 ml PBS. […] The strain was grown to the mid-late exponential phase ([…] ∼ 0.5-0.6) in two biological replicates. […] The lysate was centrifuged (15,000g, 15 min at 4 °C), and the supernatant was collected. Procedures for the precipitation of protein, trypsin digestion, and analysis of generated peptides have been mentioned in the Supplementary file. […] Protein quantities were then calculated using Bradford assay. […] Consequently, trypsin digestion of protein was attained by incubating the reaction at 37°C for 16 h using 5 μg trypsin (MS grade, Promega). The next day, the reaction was quenched by adding one volume of 2% (w/v) trifluoroacetic acid, and the obtained peptides were used for mass spectrometry. Analysis of peptides was carried out as reported by Singh et al. (83). Using the manufacturer's protocol, peptides from each replicate of B. producta ATCC 27340 were initially cleaned-up using Oasis HLB 1 cc Vac cartridges (Waters). The […] analysis of each sample was performed on a quadrupole-TOF hybrid mass spectrometer (TripleTOF 6600, SCIEX) coupled to an Eksigent Nano LC-425 system. […] method was created using 93 precursor isolation windows which were defined on the basis of precursor m/z frequencies in DDA run using the SWATH Variable Window Calculator (SCIEX), with a limitation window of 5 m/z. Analysis parameters were optimized before any sample was run. Nebulizer gas and curtain gas were maintained at 20 and 25 psi, respectively.
# R. faecis = experiment: Growth of R. faecis on barley β-glucan; assay type: cell-based, Roseburia faecis; settings: minimal medium with 1% barley β-glucan, no BpGH16MLG
# Procedure: […] JCM 31261, B. pseudocatenulatum JCM 1200^T, B. adolescentis JCM 1275^T, B. coccoides JCM 1395^T, B. bifidum JCM 1254, and A. caccae JCM 13470^T were used for bacterial mono-culture experiments. […] About 5 μl glycerol stock was initially inoculated to 5 ml of GAM for the primary culture of these strains. […] The experiment was set up on 300 μl flat-bottomed 96-well microtiter plates. Reading was taken every interval of 8 h at 600 nm on a spectrophotometer.
# [1] = native BPGH16, DNS assay, pH 5.7, 37 °C
substance,measurement,setting,value
Barley β-glucan,Km,"BpGH16MLG (BPGH16); BpGH16MLG with barley MLG, no unit",0.22 ± 0.04
same,kcat,"BpGH16MLG (BPGH16); BpGH16MLG with barley MLG, no unit, in 1/s",62 ± 1.23
same,Km,BpGH16MLG (BPGH16); [1],0.22 ± 0.04 mg/mL
same,kcat,BpGH16MLG (BPGH16); [1],62 ± 1.2 s⁻¹
same,overall loss in activity,BPGH16 mutant D381A; D381A versus native enzyme,1.34 fold
same,reduction in kcat,BPGH16 mutant D381A; D381A versus native enzyme,1.7 fold
same,Km,"BPGH16 mutant D381A; mutant D381A, DNS assay",0.17 ± 0.04 mg/mL
same,kcat,"BPGH16 mutant D381A; mutant D381A, DNS assay",35.7 ± 1.1 s⁻¹
same,kcat,BPGH16 mutant W362A,0 s⁻¹
same,abundance of Bp1313,proteome of B. producta,approximately 5 fold
same,abundance of Bp1314,proteome of B. producta,~16 fold
same,expression of Bp1317,proteome of B. producta,about 7 fold
same,expression of Bp1318,proteome of B. producta,about 7 fold
same,up-regulation of Bp3738 (GH18),proteome of B. producta,5.1 fold
same,up-regulation of Bp4420 (GH3),proteome of B. producta,3.4 fold
same,up-regulation of Bp8539 (GH3),proteome of B. producta,12.4 fold
same,growth of R. faecis,R. faecis,could not grow
